Patent publication US12150995B2, “IRAK degraders and uses thereof” (Kymera Therapeutics, Inc., priority 2020, dated 2024)

Target: T1, IRAK4 (Homo sapiens, UniProt Q9NWZ3)
T1 construct: endogenous in cells; host or cells: OCI-LY10
T1 sequence (Q9NWZ3 1-460): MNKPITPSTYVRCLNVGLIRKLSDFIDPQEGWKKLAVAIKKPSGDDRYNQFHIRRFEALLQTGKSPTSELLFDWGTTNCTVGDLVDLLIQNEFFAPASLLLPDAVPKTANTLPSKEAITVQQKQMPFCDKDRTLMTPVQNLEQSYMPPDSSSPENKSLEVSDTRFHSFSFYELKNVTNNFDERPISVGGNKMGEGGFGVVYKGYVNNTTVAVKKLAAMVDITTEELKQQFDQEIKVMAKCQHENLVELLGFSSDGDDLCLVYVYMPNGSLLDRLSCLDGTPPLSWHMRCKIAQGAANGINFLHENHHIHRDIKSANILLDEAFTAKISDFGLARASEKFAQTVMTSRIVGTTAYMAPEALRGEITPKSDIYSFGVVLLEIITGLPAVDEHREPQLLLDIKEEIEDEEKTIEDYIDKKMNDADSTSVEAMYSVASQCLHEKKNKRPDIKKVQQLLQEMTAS
Experiment: IRAK4 MSD Degradation in OCI-LY10
Format: cell-based
Settings: OCI-LY10 cells, Meso Scale Discovery, incubated 4 to 24 hours
Outline: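 IRAK4 degradation was quantified by Meso Scale electrochemiluminescence (anti-IRAK4 capture and detection antibodies) in lysates of treated OCI-LY10 cells. Compounds were dosed at 8 concentrations (1:3 dilutions, top 1 to 10 μM) for 4 to 24 h; DC50 derived by three-parameter logistic fitting.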

| SMILES | DC50 [nM] |
| --- | --- |
| O=C1CCN(c2cncc3c(C4CCN(C[C@H]5CC[C@H](c6nc7cnc(NC(=O)c8cccc(C(F)(F)F)n8)cc7s6)CC5)CC4)cccc23)C(=O)N1 [I-171] | 10 to 50 |
| COc1cc2nn([C@H]3CC[C@H](CN4C5CC4CN(c4cccc6c4n(C)c(=O)n6C4CCC(=O)NC4=O)C5)CC3)cc2cc1NC(=O)c1cncc(C#N)c1 (stereo partly shown) [I-258] | > 200 |
| COc1cc2nn([C@H]3CC[C@H](CN4CCC(c5cccc6c5n(C)c(=O)n6C5CCC(=O)NC5=O)CC4)CC3)cc2cc1NC(=O)c1ccc(C(F)(F)F)nc1 (stereo partly shown) [I-194] | > 200 |
| CC(C)Nc1cc(-n2ccc3cc(C(F)(F)F)cnc32)ncc1C(=O)N[C@H]1CC[C@H](CN2CCC(c3cccc4c3n(C)c(=O)n4C3CCC(=O)NC3=O)CC2)CC1 (stereo partly shown) [I-368] | > 200 |
| CN(CCCO[C@H]1C[C@@H](Nc2cccc3c2C(=O)N(C2CCC(=O)NC2=O)C3=O)C1)C[C@H]1CC[C@H](n2cc3cc(NC(=O)c4cccc(C(F)(F)F)n4)c(C(C)(C)O)cc3n2)CC1 (stereo partly shown) [I-464] | 10 to 50 |
| Cc1cccc(C(=O)Nc2cc3sc([C@H]4CC[C@H](CN5CCO[C@H](CCCNc6cccc7c6C(=O)N(C6CCC(=O)NC6=O)C7=O)C5)CC4)nc3cc2C(C)(C)O)n1 (stereo partly shown) [I-477] | 100 to 200 |
| Cc1cccc(C(=O)Nc2cc3sc([C@H]4CC[C@H](C(=O)N5CC6(CCN(CCNc7cccc8c7C(=O)N(C7CCC(=O)NC7=O)C8=O)CC6)C5)CC4)nc3cc2C(C)(C)O)n1 (stereo partly shown) [I-468] | 10 to 50 |
| COc1cc2nn([C@H]3C[C@H](CN4CC(c5cccc6c5n(C)c(=O)n6C5CCC(=O)NC5=O)C4)C3)cc2cc1NC(=O)c1cccc(C(F)(F)F)n1 (stereo partly shown) [I-46, N-[2-[3-[[3-[1-(2,6-dioxo-3-piperidyl)-3-methyl-2-oxo-benzimidazol-4-yl]azetidin-1-yl]methyl]cyclobutyl]-6-methoxy-indazol-5-yl]-6-(trifluoromethyl)pyridine-2-carboxamide] | 10 to 50 |
| COc1cc2nn([C@H]3CC[C@H](CN4CCN(c5ccc(N6CCC(=O)NC6=O)cn5)CC4)CC3)cc2cc1NC(=O)c1cccc(C(F)(F)F)n1 [I-313] | > 200 |
| Cc1cc2nn([C@H]3CC[C@H](CN4C[C@H]5C[C@@H]4CN5c4cccc5c4n(C)c(=O)n5C4CCC(=O)NC4=O)CC3)cc2cc1NC(=O)c1cccc(C(F)(F)F)n1 (stereo partly shown) [I-389] | 10 to 50 |

More lines, now with the values ahead:

| DC50 [nM] | SMILES |
| --- | --- |
| < 10 | Cn1c(=O)n(C2CCC(=O)NC2=O)c2cccc(N3CCN(C[C@H]4CC[C@H](n5cc6cc(NC(=O)c7cccc(C(F)(F)F)n7)c(F)cc6n5)CC4)CC3)c21 (stereo partly shown) [I-359] |
| < 10 | CN(C)c1cc2nn([C@H]3CC[C@H](CN4CCC(c5cccc6c5n(C)c(=O)n6C5CCC(=O)NC5=O)CC4)CC3)cc2cc1NC(=O)c1cccc(C(F)(F)F)n1 (stereo partly shown) [I-107] |
| < 10 | Cn1c(=O)n(C2CCC(=O)NC2=O)c2cccc(C#CCN3CCN(C[C@H]4CC[C@H](n5cc6cc(NC(=O)c7cccc(C(F)(F)F)n7)c(C(C)(C)O)cc6n5)CC4)CC3)c21 (stereo partly shown) [I-326] |
| < 10 | CC(C)Nc1cc(-c2ccc3cc(C#N)cnn23)ncc1C(=O)N[C@H]1CC[C@H](CN(C)C2CCN(c3cccc4c3n(C)c(=O)n4C3CCC(=O)NC3=O)CC2)CC1 (stereo partly shown) [I-179] |
| < 10 | COc1cc2nn([C@H]3CC[C@H](CN4CCN(c5cccc6c(N7CCC(=O)NC7=O)cncc56)[C@H](C)C4)CC3)cc2cc1NC(=O)c1cccc(C(F)(F)F)n1 [I-256] |
| < 10 | Cn1c(=O)n(C2CCC(=O)NC2=O)c2ccc(F)c(C3CCN(C[C@H]4C[C@H](n5cc6cc(NC(=O)c7cccc(C(F)(F)F)n7)ccc6n5)C4)CC3)c21 (stereo partly shown) [I-151] |
| < 10 | COc1cc2nn([C@H]3CC[C@H](CN4CCN(c5ccc6c(N7CCC(=O)NC7=O)cncc6c5)CC4)CC3)cc2cc1NC(=O)c1cccc(C(F)(F)F)n1 [I-208] |
| < 10 | COc1cc2nn([C@H]3CC[C@H](CN4CC=C(c5cccc6c5n(C)c(=O)n6C5CCC(=O)NC5=O)C4)CC3)cc2cc1NC(=O)c1cccc(C(F)(F)F)n1 (stereo partly shown) [I-266] |
| < 10 | CN(C(=O)[C@H]1CC[C@H](n2cc3cc(NC(=O)c4cccc(C(F)(F)F)n4)ncc3n2)CC1)C1CCN(c2cccc3c2n(C)c(=O)n3C2CCC(=O)NC2=O)CC1 (stereo partly shown) [I-187] |
